Measurements taken from patent publication US11046716B2, “Beta-lactamase inhibitors” (priority 2015, dated 2021).
pIC50: −log10 of the molar value.

Legend:
[1] = test system: K. pneumoniae expressing the Class A carbapenemase KPC-2; test: Broth microdilution MIC assay with meropenem, K. pneumoniae KPC-2; type: cell-based; settings: Fixed Mero (meropenem) 4 μg/mL; K. p. 156319 KPC-3
Summary of the method: (§1)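 In cation-adjusted Mueller Hinton broth, bacteria pre-grown 3-5 hours were exposed to test compound (2-fold, 16–0.125 μg/mL) plus a static 4 μg/ml β-lactam. A panel of control β-lactams was run alongside, and the compound MIC was judged by eye following 16-20 hours at 37° C.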

[2] = test system: E. coli expressing the Class A Extended Spectrum Beta-Lactamase (ESBL) CTX-M-15; test: Broth microdilution MIC assay with ceftazidime, E. coli CTX-M-15; type: cell-based; settings: Fixed CAZ (ceftazidime) 4 μg/mL; E. coli ESBL4 CTX-M-15
Summary of the method: as §1

AmpC = target: T1, AmpC (Enterobacter cloacae, UniProt P05364); test: β-lactamase enzyme inhibition assay, p99 AmpC (nitrocefin substrate); type: biochemical
T1 construct: made in house; host or cells: E. coli BL21(DE3)
Summary of the method: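 Compounds are mixed with purified, untagged recombinant β-lactamase and held 15 min at 37 °C. Substrate is then added. Absorbance is followed immediately, and percent inhibition per concentration gives the IC50.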

OXA-48 = OXA-48 (UniProt Q6XEC0); test: β-lactamase enzyme inhibition assay, Class D oxacillinase; type: biochemical; settings: read-out: OXA-48
[3] = test system: K. pneumoniae expressing the class A carbapenemase KPC-2 and the class B carbapenemase VIM-4; test: Broth microdilution MIC assay with meropenem, K. pneumoniae KPC-2 and VIM-4; type: cell-based; settings: Fixed Mero (meropenem) 4 μg/mL; K. p. A-1797 KPC-2 VIM-4
Summary of the method: as §1

[4] = test system: E. cloacae expressing the Class C P99; test: Broth microdilution MIC assay with ceftazidime, E. cloacae P99; type: cell-based; settings: Fixed CAZ (ceftazidime) 4 μg/mL; E. cl. 144200 p99 AmpC
Summary of the method: as §1

VIM-2 = target: T2, VIM-2 (Escherichia coli, UniProt Q5U7L7); test: β-lactamase enzyme inhibition assay, VIM-2 (nitrocefin substrate); type: biochemical; settings: Class B; nitrocefin substrate, 486 nm; read-out: VIM-2
T2 construct: made in house; host or cells: E. coli BL21(DE3)
Summary of the method: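 Metallo-β-lactamase VIM-2 activity was tracked spectrophotometrically at 486 nm with 100 μM nitrocefin over 10 min, following 15 min preincubation with compound at 37 °C; inhibition was calculated per concentration.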

[5] = test system: P. aeruginosa expressing the Class B carbapenemase VIM-2; test: Broth microdilution MIC assay with meropenem, P. aeruginosa VIM-2; type: cell-based; settings: Fixed Mero (meropenem) 4 μg/mL; P. aerug. 2775 VIM-2
Summary of the method: as §1

KPC-2 = target: T3, KPC-2 (Klebsiella pneumoniae, UniProt Q9F663); test: β-lactamase enzyme inhibition assay, KPC-2 (imipenem substrate); type: biochemical; settings: Class A; imipenem substrate, 300 nm; read-out: KPC-2
T3 construct: made in house; host or cells: E. coli BL21(DE3)
Summary of the method: (§2)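 Compounds are mixed with purified, untagged recombinant β-lactamase and held 15 min at 37 °C. Substrate is then added: nitrocefin (100 μM final) for OXA-1, imipenem for KPC-2, cefotaxime for SHV-5. Absorbance is followed immediately, and percent inhibition per concentration gives the IC50.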

SHV-5 = target: T4, SHV-5 (Klebsiella pneumoniae, UniProt P0A3M1); test: β-lactamase enzyme inhibition assay, SHV-5 (cefotaxime substrate); type: biochemical
T4 construct: made in house; host or cells: E. coli BL21(DE3)
Summary of the method: as §2

[6] = test system: K. pneumoniae producing the Class D carbapenemase OXA-48; test: Broth microdilution MIC assay with meropenem, K. pneumoniae OXA-48; type: cell-based; settings: Fixed Mero (meropenem) 4 μg/mL; K. p. 11978 OXA-48
Summary of the method: as §1

T4 sequence (P0A3M1 22-286): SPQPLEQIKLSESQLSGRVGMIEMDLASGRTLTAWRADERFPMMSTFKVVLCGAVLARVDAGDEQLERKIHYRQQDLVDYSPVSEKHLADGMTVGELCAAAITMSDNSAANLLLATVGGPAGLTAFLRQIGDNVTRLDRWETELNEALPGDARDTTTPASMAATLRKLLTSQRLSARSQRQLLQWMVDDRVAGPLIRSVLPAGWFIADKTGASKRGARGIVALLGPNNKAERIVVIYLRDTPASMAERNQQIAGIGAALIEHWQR
T3 sequence (Q9F663 25-293, looked up): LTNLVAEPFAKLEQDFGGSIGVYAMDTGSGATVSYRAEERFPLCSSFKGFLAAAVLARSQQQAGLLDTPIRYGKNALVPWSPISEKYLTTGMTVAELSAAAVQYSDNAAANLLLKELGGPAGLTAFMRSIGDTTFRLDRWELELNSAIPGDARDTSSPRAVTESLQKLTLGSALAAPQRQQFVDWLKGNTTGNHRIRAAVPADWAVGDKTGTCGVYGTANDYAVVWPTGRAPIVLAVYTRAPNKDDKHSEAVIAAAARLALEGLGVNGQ
T1 sequence (P05364 21-381): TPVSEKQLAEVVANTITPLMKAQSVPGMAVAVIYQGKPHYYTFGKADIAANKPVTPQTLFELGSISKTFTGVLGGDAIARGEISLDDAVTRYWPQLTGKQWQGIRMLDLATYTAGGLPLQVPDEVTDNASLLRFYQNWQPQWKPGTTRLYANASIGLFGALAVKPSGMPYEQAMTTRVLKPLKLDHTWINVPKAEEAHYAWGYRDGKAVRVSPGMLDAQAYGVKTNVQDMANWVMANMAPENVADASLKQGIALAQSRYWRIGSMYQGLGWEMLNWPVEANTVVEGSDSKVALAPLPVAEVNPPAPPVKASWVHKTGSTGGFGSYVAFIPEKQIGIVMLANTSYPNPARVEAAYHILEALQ

| Compound | MIC (μg/mL) of Exemplary Compounds in presence of fixed β-lactams: K. p. 156319 KPC-3 [1] | MIC (μg/mL) of Exemplary Compounds in presence of fixed β-lactams: E. coli ESBL4 CTX-M-15 [2] | pIC50 (AmpC) | pIC50 (OXA-48) | MIC (μg/mL) of Exemplary Compounds in presence of fixed β-lactams: K. p. A-1797 KPC-2 VIM-4 [3] | MIC (μg/mL) of Exemplary Compounds in presence of fixed β-lactams: E. cl. 144200 p99 AmpC [4] | pIC50 (VIM-2) | MIC (μg/mL) of Exemplary Compounds in presence of fixed β-lactams: P. aerug. 2775 VIM-2 [5] | pIC50 (KPC-2) | pIC50 (SHV-5) | MIC (μg/mL) of Exemplary Compounds in presence of fixed β-lactams: K. p. 11978 OXA-48 [6] |
| --- | --- | --- | --- | --- | --- | --- | --- | --- | --- | --- | --- |
| NCCn1cnnc1CC(=O)N[C@H]1Cc2cccc(C(=O)O)c2OB1O [Example 117, (R)-3-(2-(4-(2-aminoethyl)-4H-1,2,4-triazol-3-yl)acetamido)-2-hydroxy-3,4-dihydro-2H-benzo[e][1,2]oxaborinine-8-carboxylic acid] | C (C represents an MIC of <1 μg/mL) | C (C represents an MIC of <1 μg/mL) | > 7.00 | 6.00 to 7.00 | B (B represents an MIC between 1 and 16 μg/mL inclusive) | C (C represents an MIC of <1 μg/mL) | 6.00 to 7.00 | C (C represents an MIC of <1 μg/mL) | 6.00 to 7.00 | > 7.00 | B (B represents an MIC between 1 and 16 μg/mL inclusive) |
| NCCCC[C@@H](C(=O)N[C@H]1Cc2cccc(C(=O)O)c2OB1O)n1cc(CN)nn1 [Example 113, (R)-3-((S)-6-amino-2-(4-(aminomethyl)-1H-1,2,3-triazol-1-yl)hexanamido)-2-hydroxy-3,4-dihydro-2H-benzo[e][1,2]oxaborinine-8-carboxylic acid] | B (B represents an MIC between 1 and 16 μg/mL inclusive) | C (C represents an MIC of <1 μg/mL) | > 7.00 | 6.00 to 7.00 | C (C represents an MIC of <1 μg/mL) | C (C represents an MIC of <1 μg/mL) | > 7.00 | C (C represents an MIC of <1 μg/mL) | 6.00 to 7.00 | 5.00 to 6.00 | A (A represents an MIC>16 μg/mL) |
| CNCc1c(CO)nnn1CC(=O)N[C@H]1Cc2cccc(C(=O)O)c2OB1O [Example 15, (R)-2-hydroxy-3-(2-(4-(hydroxymethyl)-5-((methylamino)methyl)-1H-1,2,3-triazol-1-yl)acetamido)-3,4-dihydro-2H-benzo[e][1,2]oxaborinine-8-carboxylic acid] | B (B represents an MIC between 1 and 16 μg/mL inclusive) | C (C represents an MIC of <1 μg/mL) | > 7.00 | 6.00 to 7.00 | B (B represents an MIC between 1 and 16 μg/mL inclusive) | C (C represents an MIC of <1 μg/mL) | > 7.00 | C (C represents an MIC of <1 μg/mL) | 6.00 to 7.00 | 6.00 to 7.00 | B (B represents an MIC between 1 and 16 μg/mL inclusive) |
| O=C(Cn1cc([N+](=O)[O-])cn1)N[C@H]1Cc2cccc(C(=O)O)c2OB1O [Example 56, (R)-2-hydroxy-3-(2-(4-nitro-1H-pyrazol-1-yl)acetamido)-3,4-dihydro-2H-benzo[e][1,2]oxaborinine-8-carboxylic acid] | B (B represents an MIC between 1 and 16 μg/mL inclusive) | C (C represents an MIC of <1 μg/mL) | > 7.00 | 6.00 to 7.00 | B (B represents an MIC between 1 and 16 μg/mL inclusive) | C (C represents an MIC of <1 μg/mL) | 6.00 to 7.00 | B (B represents an MIC between 1 and 16 μg/mL inclusive) | > 7.00 | > 7.00 | B (B represents an MIC between 1 and 16 μg/mL inclusive) |
| Nc1nnc(CC(=O)N[C@H]2Cc3cccc(C(=O)O)c3OB2O)[nH]1 [Example 20, (R)-3-(2-(5-amino-4H-1,2,4-triazol-3-yl)acetamido)-2-hydroxy-3,4-dihydro-2H-benzo[e][1,2]oxaborinine-8-carboxylic acid] | B (B represents an MIC between 1 and 16 μg/mL inclusive) | C (C represents an MIC of <1 μg/mL) | 6.00 to 7.00 | 6.00 to 7.00 | B (B represents an MIC between 1 and 16 μg/mL inclusive) | C (C represents an MIC of <1 μg/mL) | 6.00 to 7.00 | B (B represents an MIC between 1 and 16 μg/mL inclusive) | > 7.00 | > 7.00 | B (B represents an MIC between 1 and 16 μg/mL inclusive) |
| NCCn1cc(C(=O)N[C@H]2Cc3cccc(C(=O)O)c3OB2O)nn1 [Example 59, (R)-3-(1-(2-aminoethyl)-1H-1,2,3-triazole-4-carboxamido)-2-hydroxy-3,4-dihydro-2H-benzo[e][1,2]oxaborinine-8-carboxylic acid] | B (B represents an MIC between 1 and 16 μg/mL inclusive) | C (C represents an MIC of <1 μg/mL) | > 7.00 | 5.00 to 6.00 | B (B represents an MIC between 1 and 16 μg/mL inclusive) | C (C represents an MIC of <1 μg/mL) | > 7.00 | C (C represents an MIC of <1 μg/mL) | > 7.00 | > 7.00 | A (A represents an MIC>16 μg/mL) |
| N=CNCCn1nnnc1CC(=O)N[C@H]1Cc2cccc(C(=O)O)c2OB1O [Example 104, (R)-3-(2-(1-(2-formimidamidoethyl)-1H-tetrazol-5-yl)acetamido)-2-hydroxy-3,4-dihydro-2H-benzo[e][1,2]oxaborinine-8-carboxylic acid] | C (C represents an MIC of <1 μg/mL) | C (C represents an MIC of <1 μg/mL) | > 7.00 | 6.00 to 7.00 | C (C represents an MIC of <1 μg/mL) | C (C represents an MIC of <1 μg/mL) | 6.00 to 7.00 | C (C represents an MIC of <1 μg/mL) | > 7.00 | > 7.00 | C (C represents an MIC of <1 μg/mL) |
